Test results as given in patent publication US20100047333A1, “Modified Peptides and Their Use for the Treatment of Autoimmune Diseases” (priority 2001, published 2010).

Tests used:
mice [1] = test: survival rate of mice after multiple administrations of peptide; format: in vivo
Text: (§1) Other characteristics and advantages of the invention will become apparent from the example which follows relating to the preparation of the modified peptide and to the study of its activity against an autoimmune disease. Systemic lupus presents an easy clinical symptom to follow because of the large urinary protein excretion that accompanies the disorder that results from an associated renal condition, glomerulonephritis. Levels of protein secretion were followed to assess the effectiveness of the modified peptide in addressing the underlying autoimmune disorder.
(§2) The specific peptide […] (SEQ ID NO: 1), which is a 21-amino acid sequence of the 70 kDa snRNP protein corresponding to residues 131-151, was synthesized in its phosphorylated form (in the 10 position—P10). This self-protein, which is normally present in each cell, is recognized by T-cells and antibodies from lupus patients and mice as an antigen toward which the immune system is reacting, generating a so-called autoimmune reaction.

mice [2] = test: urine protein excretion in treated mice; format: in vivo
Text: as §1, §2

CD4+ T cells = test: production of IL-2 (interluekin-2) by CD4+ T cells; format: cell-based, mice
Text: as §2

## RIHMVYSKRSGKPRGYAFIEY (lysine acetylation, position unspecified; listed as Homo sapiens) [acetylated peptide]
Mice [1]; preliminary data, compared with the phosphorylated peptide P10
  activity (preliminary data): even stronger activity

## RIHMVYSKRSGKPRGYAFIEY (listed as Homo sapiens) [natural (non-phosphorylated) peptide, reference compound]
Mice [1]; mice, after administration of the peptide
  improvement in the survival rate (in words): unable to improve significantly the survival rate

## RIHMVYSKRSGKPRGYAFIEY [P10]
Mice [2]
  urine protein excretion: reduced
Mice [1]; mice, after multiple administrations (similar to a vaccine), compared to 0%
  survival rate: 55%
CD4+ T cells
  production of IL-2 (interluekin-2) by CD4+ T cells: increased significantly
